Laboratory results from patent US12059422B2 (MEI Pharma, Inc., priority 2011, dated 2024).

Legend:
Assay type in all cases: biochemical
PI3K beta = target: T1, PI3K beta (Homo sapiens, UniProt P42338); assay: Luciferase-based luminescence assay (ADP Glo), PI3K beta enzymatic activity; settings: for IC50: inhibition of enzymatic activity, ADP Glo, 25 μM ATP, read-out: IC50 p110β; for α/β ratio: ratio of enzymatic IC50 values, Table 1
T1 construct: purchased Millipore, Billerica, MA, USA
How it was run: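 Final enzyme 4.8 nM PI3K beta or 7.6 nM PI3K gamma, with 50 μM PIP2 and 25 μM ATP, 1 h in HEPES pH 7.5 buffer with MgCl2, EGTA, NaCl, CHAPS and DTT. ADP formed measured by ADP-Glo luminescence; IC50 from 10-point curve fits.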

PI3K delta = target: T2, PI3K delta (Homo sapiens, UniProt O00329); assay: Luciferase-based luminescence assay (KinaseGlo), PI3K delta enzymatic activity; settings: for IC50: inhibition of enzymatic activity, KinaseGlo, 25 μM ATP, read-out: IC50 p110δ; for α/δ ratio: ratio of enzymatic IC50 against PI3Kα over IC50 against PI3Kδ; for β/δ ratio / γ/δ ratio: ratio of enzymatic IC50 values, Table 1
T2 construct: purchased Millipore, Billerica, MA, USA
T2 sequence (O00329 whole entry, species assumed): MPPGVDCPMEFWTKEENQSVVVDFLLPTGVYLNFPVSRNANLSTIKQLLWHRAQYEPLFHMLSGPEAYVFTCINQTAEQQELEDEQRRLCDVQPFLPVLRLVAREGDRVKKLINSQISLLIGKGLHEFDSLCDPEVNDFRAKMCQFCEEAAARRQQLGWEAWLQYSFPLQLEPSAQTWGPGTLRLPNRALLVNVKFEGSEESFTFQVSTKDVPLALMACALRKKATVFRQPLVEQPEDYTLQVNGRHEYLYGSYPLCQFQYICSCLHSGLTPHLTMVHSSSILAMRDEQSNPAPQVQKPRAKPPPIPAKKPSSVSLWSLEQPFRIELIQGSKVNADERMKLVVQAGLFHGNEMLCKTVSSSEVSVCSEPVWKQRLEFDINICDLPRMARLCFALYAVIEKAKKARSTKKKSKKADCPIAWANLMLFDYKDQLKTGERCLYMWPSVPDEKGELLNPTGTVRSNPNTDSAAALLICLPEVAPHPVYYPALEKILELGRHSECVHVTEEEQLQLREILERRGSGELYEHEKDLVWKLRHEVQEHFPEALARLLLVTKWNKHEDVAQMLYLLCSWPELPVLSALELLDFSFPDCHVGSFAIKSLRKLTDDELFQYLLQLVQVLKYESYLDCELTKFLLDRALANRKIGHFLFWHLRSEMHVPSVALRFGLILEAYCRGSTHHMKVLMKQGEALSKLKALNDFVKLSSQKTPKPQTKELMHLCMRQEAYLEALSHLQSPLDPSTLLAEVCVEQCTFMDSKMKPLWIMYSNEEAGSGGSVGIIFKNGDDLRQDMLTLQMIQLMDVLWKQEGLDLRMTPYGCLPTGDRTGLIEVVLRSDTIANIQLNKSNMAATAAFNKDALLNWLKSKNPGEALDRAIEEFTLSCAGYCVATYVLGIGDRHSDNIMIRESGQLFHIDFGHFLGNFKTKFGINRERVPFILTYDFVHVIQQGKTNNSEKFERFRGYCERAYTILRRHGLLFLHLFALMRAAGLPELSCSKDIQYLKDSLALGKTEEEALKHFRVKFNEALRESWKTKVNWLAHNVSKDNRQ
T2 sequence (P27986 whole entry partner, species assumed): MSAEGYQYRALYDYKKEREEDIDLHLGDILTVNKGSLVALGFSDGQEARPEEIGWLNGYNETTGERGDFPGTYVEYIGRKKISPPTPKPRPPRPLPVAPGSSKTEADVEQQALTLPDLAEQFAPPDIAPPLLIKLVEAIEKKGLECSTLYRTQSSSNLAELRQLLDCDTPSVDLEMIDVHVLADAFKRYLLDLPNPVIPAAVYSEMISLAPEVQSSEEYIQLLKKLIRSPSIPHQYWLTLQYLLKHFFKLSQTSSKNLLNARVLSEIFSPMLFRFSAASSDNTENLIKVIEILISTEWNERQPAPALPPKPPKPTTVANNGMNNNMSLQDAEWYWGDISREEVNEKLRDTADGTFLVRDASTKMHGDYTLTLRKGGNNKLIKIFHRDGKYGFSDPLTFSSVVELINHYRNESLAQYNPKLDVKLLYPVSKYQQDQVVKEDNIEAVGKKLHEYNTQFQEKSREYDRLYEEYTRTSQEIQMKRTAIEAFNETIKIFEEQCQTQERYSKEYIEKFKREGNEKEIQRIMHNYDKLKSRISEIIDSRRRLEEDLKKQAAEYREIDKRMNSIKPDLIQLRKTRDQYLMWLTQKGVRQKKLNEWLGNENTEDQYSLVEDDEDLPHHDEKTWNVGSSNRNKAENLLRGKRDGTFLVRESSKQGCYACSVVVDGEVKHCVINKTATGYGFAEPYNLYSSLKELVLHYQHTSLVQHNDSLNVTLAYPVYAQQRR
How it was run: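 KinaseGlo luminescence measured ATP remaining after PIP2 (50 μM) phosphorylation with 25 μM ATP in HEPES pH 7.5 buffer with CHAPS and DTT. Final enzyme was 1.65 nM alpha (1 h reaction) or 6.86 nM delta (2 h reaction). IC50 was curve-fitted from 10 concentrations.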

mTOR = mTOR (Homo sapiens, UniProt P42345); assay: mTOR inhibition (Table 1); settings: Table 1, no method described

T1 sequence (P42338 whole entry, species assumed): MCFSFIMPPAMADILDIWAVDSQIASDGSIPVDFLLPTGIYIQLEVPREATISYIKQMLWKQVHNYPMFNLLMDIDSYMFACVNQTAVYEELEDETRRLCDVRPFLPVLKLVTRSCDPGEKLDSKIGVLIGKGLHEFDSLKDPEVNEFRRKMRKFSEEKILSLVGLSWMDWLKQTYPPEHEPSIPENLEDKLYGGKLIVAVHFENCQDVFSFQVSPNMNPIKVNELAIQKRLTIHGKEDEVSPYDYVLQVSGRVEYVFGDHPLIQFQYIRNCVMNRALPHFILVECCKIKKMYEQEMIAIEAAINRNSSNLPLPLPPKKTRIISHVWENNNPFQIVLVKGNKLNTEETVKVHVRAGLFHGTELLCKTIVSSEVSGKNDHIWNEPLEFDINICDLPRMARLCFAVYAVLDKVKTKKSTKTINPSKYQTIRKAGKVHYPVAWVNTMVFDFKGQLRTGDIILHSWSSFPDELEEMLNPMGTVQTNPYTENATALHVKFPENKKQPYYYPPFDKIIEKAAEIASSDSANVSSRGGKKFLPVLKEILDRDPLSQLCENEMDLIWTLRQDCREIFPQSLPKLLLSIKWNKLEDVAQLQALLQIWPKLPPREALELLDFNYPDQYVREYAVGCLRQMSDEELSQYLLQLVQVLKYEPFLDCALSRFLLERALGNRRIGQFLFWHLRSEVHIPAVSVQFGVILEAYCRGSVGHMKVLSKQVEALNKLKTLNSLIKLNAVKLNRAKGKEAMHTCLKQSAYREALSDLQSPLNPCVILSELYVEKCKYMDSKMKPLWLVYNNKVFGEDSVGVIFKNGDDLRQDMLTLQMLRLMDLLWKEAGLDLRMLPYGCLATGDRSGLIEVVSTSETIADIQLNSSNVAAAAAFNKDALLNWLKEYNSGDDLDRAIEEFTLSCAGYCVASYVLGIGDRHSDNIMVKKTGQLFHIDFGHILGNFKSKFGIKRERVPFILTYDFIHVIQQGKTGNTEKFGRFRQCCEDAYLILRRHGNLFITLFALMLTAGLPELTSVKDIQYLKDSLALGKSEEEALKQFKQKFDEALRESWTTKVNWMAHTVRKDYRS
T1 sequence (P27986 whole entry partner, species assumed): as the sequence (P27986 whole entry partner, species assumed) above

Row | IC50 (PI3K beta) [nM] | α/β ratio (PI3K beta) | IC50 (PI3K delta) [nM] | α/δ ratio (PI3K delta) | β/δ ratio (PI3K delta) | γ/δ ratio (PI3K delta) | IC50 (mTOR) [nM] | SMILES
1 | 200 to 500 | D’ | ≤ 100 | A’ | B’ | A’ | > 500 | COc1ccc(-c2ccccc2CC(C)(C)Nc2nc(N3CCOCC3)nc(-n3c(C(F)F)nc4ccccc43)n2)cc1 [Compound A67, 4-(2-(difluoromethyl)-1H-benzo[d]imidazol-1-yl)-N-(1-(4′-methoxybiphenyl-2-yl)-2-methylpropan-2-yl)-6-morpholino-1,3,5-triazin-2-amine]
2 | > 500 | D’ | ≤ 100 | A’ | A’ | A’ | > 500 | CC(C)(Cc1ccccc1C1CCNCC1)Nc1nc(N2CCOCC2)nc(-n2c(C(F)F)nc3ccccc32)n1 [Compound A68, 4-(2-(difluoromethyl)-1H-benzo[d]imidazol-1-yl)-N-(2-methyl-1-(2-(piperidin-4-yl)phenyl)propan-2-yl)-6-morpholino-1,3,5-triazin-2-amine]
3 | > 500 | C’ | ≤ 100 | A’ | A’ | A’ | > 500 | CCN1CCC(c2ccccc2CC(C)(C)Nc2nc(N3CCOCC3)nc(-n3c(C(F)F)nc4ccccc43)n2)CC1 [Compound A70, 4-(2-(difluoromethyl)-1H-benzo[d]imidazol-1-yl)-N-(1-(2-(1-ethylpiperidin-4-yl)phenyl)-2-methylpropan-2-yl)-6-morpholino-1,3,5-triazin-2-amine]
4 | > 500 | D’ | ≤ 100 | A’ | A’ | A’ | > 500 | CC(C)N1CCC(c2ccccc2CC(C)(C)Nc2nc(N3CCOCC3)nc(-n3c(C(F)F)nc4ccccc43)n2)CC1 [Compound A71, 4-(2-(difluoromethyl)-1H-benzo[d]imidazol-1-yl)-N-(1-(2-(1-isopropylpiperidin-4-yl)phenyl)-2-methylpropan-2-yl)-6-morpholino-1,3,5-triazin-2-amine]
5 | ≤ 100 | A’ | ≤ 100 | A’ | D’ | C’ | > 500 | CC(=O)N1CCC(c2ccccc2CC(C)(C)Nc2nc(N3CCOCC3)nc(-n3c(C(F)F)nc4ccccc43)n2)CC1 [Compound A72, 4-(2-(difluoromethyl)-1H-benzo[d]imidazol-1-yl)-N-(2-methyl-1-(2-(1-acetylpiperidin-4-yl)phenyl)propan-2-yl)-6-morpholino-1,3,5-triazin-2-amine]
6 | ≤ 100 | A’ | ≤ 100 | A’ | D’ | B’ | > 500 | CC(C)(Cc1ccccc1C1CCN(S(C)(=O)=O)CC1)Nc1nc(N2CCOCC2)nc(-n2c(C(F)F)nc3ccccc32)n1 [Compound A73, 4-(2-(difluoromethyl)-1H-benzo[d]imidazol-1-yl)-N-(2-methyl-1-(2-(1-(methylsulfonyl)piperidin-4-yl)phenyl)propan-2-yl)-6-morpholino-1,3,5-triazin-2-amine]
7 | > 500 | D’ | ≤ 100 | A’ | A’ | A’ | > 500 | CC(C)(Cc1ccccc1C1CCNC1)Nc1nc(N2CCOCC2)nc(-n2c(C(F)F)nc3ccccc32)n1 (centres unmarked) [Compound A74, 4-(2-(difluoromethyl)-1H-benzo[d]imidazol-1-yl)-N-(2-methyl-1-(2-(pyrrolidin-3-yl)phenyl)propan-2-yl)-6-morpholino-1,3,5-triazin-2-amine]
8 | 200 to 500 | C’ | ≤ 100 | A’ | A’ | A’ | > 500 | CN(C)CCCc1ccccc1CC(C)(C)Nc1nc(N2CCOCC2)nc(-n2c(C(F)F)nc3ccccc32)n1 [Compound A76, 4-(2-(difluoromethyl)-1H-benzo[d]imidazol-1-yl)-N-(1-(2-(3-(dimethylamino)propyl)phenyl)-2-methylpropan-2-yl)-6-morpholino-1,3,5-triazin-2-amine]
